# Test results published in US20190282541A1, “USE OF ERIBULIN AND HISTONE DEACETYLASE INHIBITORS IN THE TREATMENT OF CANCER” (EISAI R&D MANAGEMENT CO., LTD., priority 2016, published 2019).
# Where two headings read alike, the source gives them in different places.
# Tests used:
# Format in all cases: cell-based
# [1] = test system: BT-549 human breast cancer cells; test: Single agent growth inhibition (Cell Titer-Glo proliferation); details: 72 hours
# Protocol: (§1) The growth inhibitory activities of two test agents, eribulin and entinostat, were determined alone and in combination against 12 human breast cancer cell lines (Table 1). The human breast tumor cell lines were selected based on their profile characteristics of being either human epidermal growth factor receptor 2 negative (Her2') and estrogen receptor positive (ER^+) or Triple Negative (Her2^-, ER^-, and progesterone receptor negative [PR^-]). Activities of individual agents were determined by curve-fitting the concentration of agent that inhibits cell growth by 50% compared to the control cells in a four parameter-logistic equation, whereas agent combinations were determined by the method of (Chou and […] Advances in Enzyme Regulation 22:27-55, 1984), and analyzed with CalcuSyn software. Fa, the fraction of affected drug targets at a given drug concentration, was calculated from the fractional decrease. Each agent was tested individually to determine the median-effect dose, Dm, (or EC50, the 50% effect concentration). For combination treatments, drug solutions were mixed at ratios providing approximately equipotent concentrations based upon relative Dm, and this mixture was serially diluted to yield test concentrations. The Combination Index (CI), computed from ratios of the concentrations of mixed and unmixed drugs that produce the same Fa, indicates whether inhibition is additive, synergistic, or antagonistic. In whole-cell assays, inhibitor interactions are complex (mixed), rather than mutually exclusive (purely competitive) or nonexclusive (purely non-competitive), CI values for both types of inhibition are reported to define the range of possible values. […] Finally, in Experiment 3, we determined the antiproliferative activity of the study agents in combination against the panel of human tumor cell lines. […] We further analyzed quadruplicate samples over a seven point dose response range. MCF-7 human breast cancer cells were cultured in RPMI 1640 medium supplemented with 10% fetal bovine serum (FBS), 2 mM glutamine, 10 mM 4-(2-hydroxyethyl)-1-piperazineethanesulfonic acid (HEPES), 0.075% sodium bicarbonate, 100 units/mL sodium penicillin G, 100 μg/mL streptomycin sulfate and 25 μg/mL gentamicin. T-47D human breast cancer cells were cultured in RPMI 1640 medium supplemented with 10% FES. 4.5 g/L glucose. 2 mM glutamine. 10 mM HEPES, 0.2 units/mL Insulin, 1 mM sodium pyruvate, 100 units/mL sodium penicillin G, 100 streptomycin sulfate and 25 μg/mL gentamicin, ZR-75-1 human breast cancer cells were cultured in RPMI 1640 medium supplemented with 10% FBS, 4.5 g/L. glucose, 2 mM glutamine, 10 […] HEPES, 1 mM sodium pyruvate, 100 units/mL sodium penicillin G, 100 μg/mL streptomycin sulfate and 25 μg/mL gentamicin. […] HCC70 human breast cancer cells were cultured in RPMI1640 medium supplemented with 10% FBS, 2 mM glutamine, 4.5 g/L glucose, 10 mM HEPES, 0.075% sodium bicarbonate, 1 mM sodium pyruvate, 100 units/mL sodium penicillin 0, 100 μg/mL streptomycin sulfate and 25 μg/mL gentamicin. […] The tumor cells were cultured in tissue culture flasks in a humidified incubator at 37° C., in an atmosphere of 5% CO2 and 95% air; except for the MDA-MB-134-VI, MDA-MB-175-VII, MDA-MB-415, and MDA-MB-436, these cells were cultured at 37° C. in 100% air and no additional CO2. The selected human tumor cells were seeded at 2,000-5,000 cells/well in a clear polystyrene 96-well microculture plate (Corning® Costar® 96-well flat bottom plate, Cat. No. 3997) in a total volume of 90 μL per well. After 24 hours of incubation in a humidified incubator at 37° C. with 5% CO2 and 95% air (except for the MDA-MB-134-VI, MDA-MB-175-VII, MDA-MB-415, and MDA-MB-436, these cells were cultured at 37° C. in 100% air, no additional CO2), 10 μL of the 10× drug prep was added. […]
# [2] = test system: HCC1806 human breast cancer cells; test: as above; details: 72 hours
# Protocol: as §1
# [3] = test system: HCC70 human breast cancer cells; test: as above; details: 72 hours
# Protocol: as §1
# [4] = test system: Hs578t human breast cancer cells; test: as above; details: Hs-578T, 72 hours
# Protocol: as §1
# [5] = test system: MCF-7 human breast cancer cells; test: as above; details: 72 hours
# Protocol: as §1
# [6] = test system: MDA-MB-134VI human breast cancer cells; test: as above; details: 144 hours
# Protocol: as §1
# [7] = test system: MDA-MB-175VII human breast cancer cells; test: as above; details: 144 hours
# Protocol: as §1
# [8] = test system: MDA-MB-231 human breast cancer cells; test: as above; details: 72 hours
# Protocol: as §1
# [9] = test system: MDA-MB-415 human breast cancer cells; test: as above; details: 144 hours
# Protocol: as §1
# [10] = test system: MDA-MB-436 human adenocarcinoma derived cancer cells; test: as above; details: 144 hours
# Protocol: as §1
# [11] = test system: T-47D human breast cancer cells; test: as above; details: T47D, 72 hours
# Protocol: as §1
# [12] = test system: ZR-75-1 human breast cancer cells; test: as above; details: Experiment 2, narrow concentration range, 72 hours
# Protocol: as §1
# [13] = test system: panel of 12 human breast cancer cell lines; test: Single agent inhibitory activity across the cell line panel; details: all 12 cell lines, Experiments 1 and 2
# Protocol: The growth inhibitory activities of two test agents, eribulin and entinostat, were determined alone and in combination against 12 human breast cancer cell lines (Table 1). The human breast tumor cell lines were selected based on their profile characteristics of being either human epidermal growth factor receptor 2 negative (Her2') and estrogen receptor positive (ER^+) or Triple Negative (Her2^-, ER^-, and progesterone receptor negative [PR^-]). Activities of individual agents were determined by curve-fitting the concentration of agent that inhibits cell growth by 50% compared to the control cells in a four parameter-logistic equation, whereas agent combinations were determined by the method of (Chou and […] Advances in Enzyme Regulation 22:27-55, 1984), and analyzed with CalcuSyn software. Fa, the fraction of affected drug targets at a given drug concentration, was calculated from the fractional decrease. […] Finally, in Experiment 3, we determined the antiproliferative activity of the study agents in combination against the panel of human tumor cell lines. […] We further analyzed quadruplicate samples over a seven point dose response range. […] The medium/Cell Titer-Glo® reagent was transferred to a white polystyrene 96-well microculture plate (Corning® Costar® 96-well flat bottom plate, Cat. No. 3917) before determining luminescence on the Tecan GENios microplate. […]
# [14] = Experiment 1, wide concentration range, read-out: Wide range IC50
# [15] = Experiment 2, narrow concentration range, read-out: Narrow range IC50
# [16] = MCF7, Experiment 1, wide concentration range, read-out: Wide range IC50
# [17] = MCF7, Experiment 2, narrow concentration range, read-out: Narrow range IC50
"IC50 [1, 14] [nM]","IC50 [1, 15] [nM]","IC50 [2, 14] [nM]","IC50 [2, 15] [nM]","IC50 [4, 14] [nM]","IC50 [4, 15] [nM]","IC50 [5, 16] [nM]","IC50 [5, 17] [nM]","IC50 [6, 14] [nM]","IC50 [6, 15] [nM]","IC50 [7, 14] [nM]","IC50 [7, 15] [nM]","IC50 [8, 14] [nM]","IC50 [8, 15] [nM]","IC50 [9, 14] [nM]","IC50 [9, 15] [nM]","IC50 [10, 14] [nM]","IC50 [10, 15] [nM]","IC50 [11, 15] [nM]",SMILES,"IC50 [3, 14] [nM]",also measured
1250,1500,550,1220,1100,1400,540,570,390,800,210,1170,610,940,92.1,140,810,1370,1780,"Nc1ccccc1NC(=O)c1ccc(CNC(=O)OCc2cccnc2)cc1 [entinostat, pyridin-3-yl methyl N-[[4-[(2-aminophenyl)carbarnoyl]phenyl]methyl carbamate]",1450,"IC50 [3, 15]: 1110 nM; IC50 [11, 14]: 1600 nM; IC50 [12]: 4950 nM"
0.23,0.39,0.25,0.3,0.39,0.67,0.22,0.37,0.62,0.88,0.55,1.09,0.26,0.52,0.64,0.57,2.82,3.2,1.15,C=C1C[C@@H]2CC[C@@]34C[C@H]5O[C@H]6[C@@H](O3)[C@H]3O[C@H](CC[C@@H]3O[C@H]6[C@H]5O4)CC(=O)C[C@@H]3[C@@H](OC)[C@@H](C[C@H](O)CN)O[C@H]3C[C@H]3O[C@@H](CC[C@@H]1O2)C[C@@H](C)C3=C [eribulin],0.35,Relative potency of single agents [13]: more potent than entinostat in all cell lines
